Format in all cases: functional, cell-based
Series [1] has as its target T1, Solute carrier organic anion transporter family member 1A3 (Rattus norvegicus, UniProt P70502).
T1 sequence (P70502 whole entry): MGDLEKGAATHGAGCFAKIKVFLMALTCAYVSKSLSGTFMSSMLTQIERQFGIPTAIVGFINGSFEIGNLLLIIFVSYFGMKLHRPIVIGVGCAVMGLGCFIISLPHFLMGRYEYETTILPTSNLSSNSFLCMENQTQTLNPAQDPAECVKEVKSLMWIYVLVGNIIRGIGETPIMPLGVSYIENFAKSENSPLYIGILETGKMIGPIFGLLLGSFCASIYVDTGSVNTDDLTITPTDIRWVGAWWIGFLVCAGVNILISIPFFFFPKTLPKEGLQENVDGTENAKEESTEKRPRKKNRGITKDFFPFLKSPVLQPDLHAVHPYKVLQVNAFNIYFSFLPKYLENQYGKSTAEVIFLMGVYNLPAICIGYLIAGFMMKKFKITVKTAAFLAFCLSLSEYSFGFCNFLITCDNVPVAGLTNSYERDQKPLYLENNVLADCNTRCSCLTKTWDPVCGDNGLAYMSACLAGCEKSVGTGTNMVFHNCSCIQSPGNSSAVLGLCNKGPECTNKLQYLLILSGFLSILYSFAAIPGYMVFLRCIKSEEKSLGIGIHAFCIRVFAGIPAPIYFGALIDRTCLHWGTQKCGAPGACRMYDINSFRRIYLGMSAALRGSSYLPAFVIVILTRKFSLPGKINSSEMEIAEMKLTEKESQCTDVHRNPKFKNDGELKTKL
The experiment in a line: TP_TRANSPORTER: inhibition of MTX uptake (MTX: 0.1 uM, Flufenamate: 1000 uM) in OAT-K1-expressing LLC-PK1 cells. Particulars: pig, llc-pk1, 1000 µM.

The target of series [2] is T1, Solute carrier organic anion transporter family member 1A3. The experiment in a line: TP_TRANSPORTER: inhibition of MTX uptake (MTX: 0.1 uM, Ibuprofen: 1000 uM) in OAT-K1-expressing LLC-PK1 cells. As to conditions: pig, llc-pk1, 1000 µM.
Series [3] has the same target. The experiment in a line: TP_TRANSPORTER: inhibition of MTX uptake in OAT-K1-expressing LLC-PK1 cells.
Series [4] shares this target. The experiment in a line: TP_TRANSPORTER: inhibition of MTX uptake (MTX: 0.1 uM, Phenylbutazone: 1000 uM) in OAT-K1-expressing LLC-PK1 cells. As to conditions: pig, llc-pk1, 1000 µM.

This passage reports Activity and Ki results from ChEMBL document CHEMBL2073836, “Interactions of nonsteroidal anti-inflammatory drugs with rat renal organic anion transporter, OAT-K1” (J Pharmacol Exp Ther, 1997).

pKi: −log10 of the molar value.

For the compound `O=C(O)c1ccccc1Nc1cccc(C(F)(F)F)c1` [FLUFENAMIC ACID], the Activity result in series [1] was “inhibitor [(at a rough estimate) 55 % of control]”.
Consider `CC(C)Cc1ccc(C(C)C(=O)O)cc1` (stereo not given) [IBUPROFEN], for which the Activity result in series [2] was “inhibitor [(at a rough estimate) 65 % of control]”.
`COc1ccc2c(c1)c(CC(=O)O)c(C)n2C(=O)c1ccc(Cl)cc1` [INDOMETHACIN] gave a negative logarithm of the Ki (pKi) in series [3] of 3.00.
For the compound `CC(C(=O)O)c1cccc(C(=O)c2ccccc2)c1` (stereo not given) [KETOPROFEN], the pKi in series [3] was 2.72.
Regarding `CCCCC1C(=O)N(c2ccccc2)N(c2ccccc2)C1=O` [PHENYLBUTAZONE], the Activity entry in series [4] was “inhibitor [(at a rough estimate) 70 % of control]”.
